The values that follow come from patent US8614339B2, “Dimeric derivatives of artemisinin and application in anti-cancer therapy” (Pierre Fabre Medicament, priority 2008, dated 2013).

Structures are written as SMILES.

The test system of assay [1] is A549 cell line (lung). Kind of assay: Cytotoxic activity: inhibition of cell proliferation, ATPLite luminescence of residual ATP after 72 hours. In kind it is cell-based. Conditions: A549 human lung tumour cell line, 72 hours of incubation, read-out: IC50 (expressed in nM) A549. How it is done: (§1) The cytotoxic activity of the compounds of the invention was evaluated by measuring inhibition of cell proliferation of human tumour cell lines, such as the A549 cell line (lung) and the Namalwa cell line (lymphoma). This activity is expressed by IC50, the concentration of the product tested able to inhibit cell proliferation by 50%. The method employed is measurement by luminescence of residual ATP after 72 hours of incubation using the ATPLite® kit sold by Perkin Elmer, as described in the following publication: “Measurement of cytotoxicity by ATP-based luminescence assay in primary cell cultures and cell lines.” I. A. Cree, P. E. Andreotti, Toxicology in Vitro, 11, 553-6, (1997).
(§2) As an example, the cytotoxic properties of a few of the compounds of the invention evaluated on A549 and Namalwa cell lines are presented in the following table: […]
(In ATP-based viability assays light output follows the ATP content of the culture.)

For assay [2], the system named is Namalwa cell line (lymphoma). The assay is described as above. It counts as cell-based. The following applies: Namalwa human lymphoma cell line, 72 hours of incubation, read-out: IC50 (expressed in nM) Namalwa. How it is done:
as §1, §2

For orientation: IC50 means the concentration that inhibits the measured activity by half. `C[C@@H]1CC[C@H]2C(Cn3nncc3CO[C@@]3(C(F)(F)F)O[C@@H]4OC5(C)CCC6[C@H](C)CC[C@@H]([C@H]3C)[C@]64OO5)=C(C(F)(F)F)O[C@@H]3OC4(C)CCC1[C@]32OO4` (stereo partly drawn) [Compound 7]: the results for the IC50 in assay [1] and in assay [2] were 45 nM and 30 nM, respectively.
Turning to `C[C@@H]1CC[C@H]2[C@@H](C)[C@](OCCCCCOCC3=C(C(F)(F)F)O[C@@H]4O[C@@]5(C)CC[C@H]6[C@H](C)CC[C@@H]3[C@@]46OO5)(C(F)(F)F)O[C@@H]3O[C@@]4(C)CC[C@@H]1[C@]32OO4` [Compound 16], the IC50 in assay [1] was 19 nM; in assay [2], 42 nM.
On to `C[C@@H]1CC[C@H]2C(COC/C=C/CO[C@@]3(C(F)(F)F)O[C@@H]4OC5(C)CCC6[C@H](C)CC[C@@H]([C@H]3C)[C@]64OO5)=C(C(F)(F)F)O[C@@H]3O[C@@]4(C)CCC1[C@]32OO4` (stereo partly drawn) [Compound 8], for which the IC50 in assay [1] was found to be 27 nM; in assay [2] it was 13 nM.
In the case of `C[C@@H]1CC[C@H]2C(COCCCO[C@@]3(C(F)(F)F)O[C@@H]4OC5(C)CCC6[C@H](C)CC[C@@H]([C@H]3C)[C@]64OO5)=C(C(F)(F)F)O[C@@H]3OC4(C)CCC1[C@]32OO4` (stereo partly drawn) [Compound 1], the IC50 was 5.2 nM in assay [1] and 6.8 nM in assay [2].
For `C[C@@H]1CC[C@H]2C(COCCO[C@@]3(C(F)(F)F)O[C@@H]4OC5(C)CCC6[C@H](C)CC[C@@H]([C@H]3C)[C@]64OO5)=C(C(F)(F)F)O[C@@H]3OC4(C)CCC1[C@]32OO4` (stereo partly drawn) [Compound 2], the half-inhibitory concentration (IC50) was found to be 25 nM in assay [1] and 27 nM in assay [2].
For `C[C@@H]1CC[C@H]2C(CNCCO[C@@]3(C(F)(F)F)O[C@@H]4OC5(C)CCC6[C@H](C)CC[C@@H]([C@H]3C)[C@]64OO5)=C(C(F)(F)F)O[C@@H]3O[C@@]4(C)CCC1[C@]32OO4` (stereo partly drawn) [Compound 10], in that order: 27 nM and 19 nM.
Take `C[C@@H]1CC[C@H]2C(COCCCCO[C@@]3(C(F)(F)F)O[C@@H]4OC5(C)CCC6[C@H](C)CC[C@@H]([C@H]3C)[C@]64OO5)=C(C(F)(F)F)O[C@@H]3OC4(C)CCC1[C@]32OO4` (stereo partly drawn) [Compound 3]: the half-maximal inhibitory concentration (IC50) in assay [1] stood at 6.7 nM; in assay [2] it was 5.5 nM.
On to `C[C@@H]1CC[C@H]2C(COCc3cccc(CO[C@@]4(C(F)(F)F)O[C@@H]5OC6(C)CCC7[C@H](C)CC[C@@H]([C@H]4C)[C@]75OO6)n3)=C(C(F)(F)F)O[C@@H]3OC4(C)CCC1[C@]32OO4` (stereo partly drawn) [Compound 4], for which the concentration for half-maximal inhibition (IC50) in assay [1] was 27 nM; in assay [2] it was 19 nM.
On to `C[C@@H]1CC[C@H]2[C@@H](C)[C@](OCCCCCN(C)CC3=C(C(F)(F)F)O[C@@H]4O[C@@]5(C)CC[C@H]6[C@H](C)CC[C@@H]3[C@@]46OO5)(C(F)(F)F)O[C@@H]3O[C@@]4(C)CC[C@@H]1[C@]32OO4` [Compound 22], for which the IC50 in assay [1] came to 46 nM; in assay [2] it was 83 nM.
